Like-named read-outs stand apart in the source and are kept apart here.
How the values were obtained:
[1] = system: MNU-induced bladder cancer; assay type: in vivo, female Fischer 344 rats
[2] = n = 10
[3] = in vivo; cited from earlier work
[4] = system: MNU-induced cancerous lesions of the urinary bladder; assay type: in vivo, Fischer 344 rats
[5] = system: MNU-induced urinary bladder carcinoma; assay: Second experiment (Table 5): histological assessment, MNU-induced bladder cancer; assay type: in vivo, rats
Procedure: The therapeutic effect in urinary bladder cancer in animals was assessed by histological evaluation of the tissues. The criteria for assessing normality of the tissues examined for all the experiments using the same animal model, that is, the experiments reported in Table 4, Table 5, Table 6-A, Table 6-B, Table 6-C and Table 6-D are: normal tissue, flat hyperplasia, papillary hyperplasia.
Flat hyperplasia and papillary hyperplasia are reactive changes of an inflammatory nature, though benign, and their occurrence in the experiments for assessment of new drugs in animals affected with cancer, indicates a reversal of the cancer process to non-cancerous stages.
Metaplasia is defined as the replacement of a normal functional tissue with another tissue with different structure, with loss of function, and, thus, is considered a form of premalignant lesion.
[…] animals (n=50) were used in the experiment. The therapeutic effect was assessed through histological assessment of tissues, and the toxicological effect of the compounds, through assessment of the presence or absence of urinary bleeding also called hematuria.
All the animals in the experiment were subjected to intravesical applications of 1.5 mg/kg of n-methyl-n-nitrosourea (MNU) dissolved in 0.30 mL of sodium citrate, using a catheter, for 7 weeks. One group (control) of 10 animals was given only saline solution ([…]), also intravesically and for an equal period.
The purpose of using n-methyl-n-nitrosourea (MNU) was to experimentally induce immunosuppression and subsequently producing urinary bladder carcinoma. After treatment with MNU, the animals were divided into 05 groups of 10 animals each.
After this procedure, all the 10 animals of each group were sacrificed and their urinary bladders were removed for collection of tissue fragments, which were embedded in paraffin and prepared for histological section, by the usual techniques.
For the histological examinations, sections (2 μm) of the tissue of the urinary bladder were cut using microtome Zeiss, mounted on microscope slides, and stained with hematoxylin-eosin (HE), for subsequent pathology assessment, quantification of cellular changes and comparison between control and treatment groups.

bladder cancer = settings: human, in vivo; cited from earlier work
[6] = 10 mg/kg intravesical, 14 weeks; n = 10
[7] = system: MNU-induced urinary bladder carcinoma; design: species or system rats; settings: rat, in vivo
[8] = system: bladder cancer induced by MNU; design: species or system Fischer rats; settings: rat, in vivo
[9] = rat, in vivo
[10] = Table 5 experiment, intravesical
[11] = MNU-induced bladder cancer, 10 mg/kg intravesical (topical application), 14 weeks, n = 10

Compound: CC(=O)O[C@@]12CO[C@@H]1C[C@H](O)[C@@]1(C)C(=O)[C@H](O)C3=C(C)[C@@H](OC(=O)[C@H](O)[C@@H](NC(=O)OC(C)(C)C)c4ccccc4)C[C@@](O)([C@@H](OC(=O)c4ccccc4)[C@H]21)C3(C)C [Docetaxel]
- Flat hyperplasia, number of animals ([1]; rat, in vivo): 1
- High-grade intraepithelial carcinoma (carcinoma in situ-Tis), number of animals ([1]; rat, in vivo): 3
- Low grade Intraepithelial neoplasia, number of animals ([1]; rat, in vivo): 2
- Normal, number of animals ([1]; rat, in vivo): 1
- Papillary carcinoma (Ta), number of animals ([1]; rat, in vivo): 1
- Papillary hyperplasia, number of animals ([1]; rat, in vivo): 1
- Squamous metaplasia, number of animals ([1]; rat, in vivo): 1
- success rate / responders ([1]; rat, in vivo): 20%
- Toxicology: (Hematuria), number of animals positive [2]: +10

Compound: COc1cccc2c1C(=O)c1c(O)c3c(c(O)c1C2=O)C[C@@](O)(C(=O)CO)C[C@@H]3O[C@H]1C[C@H](N)[C@H](O)[C@H](C)O1 [Doxorubicin]
- Allergic reaction, (%) patients affected [3]: 1%
- Chemical cystitis, (%) patients affected [3]: 25%

Compound: Nc1ccn([C@@H]2O[C@H](CO)[C@@H](O)C2(F)F)c(=O)n1 [Gemcitabine]
- Flat hyperplasia, number of animals ([1]; n = 10): 2
- High-grade intraepithelial carcinoma (carcinoma in situ-Tis), number of animals ([1]; n = 10): 4
- Low grade Intraepithelial neoplasia, number of animals ([1]; n = 10): 2
- Papillary hyperplasia, number of animals ([1]; n = 10): 2
- success rate / responders ([1]; rat, in vivo): 40%
- Toxicology: (Hematuria), number of animals in which absent [2]: in 06
- Toxicology: (Hematuria), number of animals positive [2]: +in 04

Compound: CO[C@@]12[C@H](COC(N)=O)C3=C(C(=O)C(C)=C(N)C3=O)N1C[C@@H]1N[C@@H]12 [Mitomycin C]
- Flat hyperplasia, animals ([4]; n = 10): 1(10%)
- High-grade intraepithelial carcinoma (carcinoma in situ-Tis), animals ([4]; n = 10): 3(30%)
- Low-grade intraepithelial carcinoma, animals ([4]; n = 10): 6(60%)
- Normal, animals ([4]; n = 10): 0%
- animals that had cancer after treatment [5, 10]: 50%
- Bladder contraction, (%) patients affected [3]: <2%
- Hematuria, (%) patients affected [3]: 10%
- Myelosuppression, (%) patients affected [3]: <10%
- patients with no recurrence of cancer during the follow-up period (bladder cancer): 19%
- recurrence rate after 5 years (bladder cancer): 64%

Compound: S=P(N1CC1)(N1CC1)N1CC1 [Thiotepa]
- Chemical cystitis, (%) patients affected [3]: 20%
- Myelosuppression, (%) patients affected [3]: 10%

Compound: CCCCC(=O)OCC(=O)[C@]1(O)Cc2c(O)c3c(c(O)c2[C@@H](O[C@H]2C[C@H](NC(=O)C(F)(F)F)[C@H](O)[C@H](C)O2)C1)C(=O)c1c(OC)cccc1C3=O [Valrubicin, N-trifluoroacetyladriamycin-14-valerate]
- Flat hyperplasia, animals ([4]; n = 10): 1(10%)
- High-grade intraepithelial carcinoma (carcinoma in situ-Tis), animals ([4]; n = 10): 2(20%)
- Low-grade intraepithelial carcinoma, animals ([4]; n = 10): 4(40%)
- Papillary carcinoma (Ta), animals ([4]; n = 10): 1(10%)
- Papillary hyperplasia, animals ([4]; n = 10): 1(10%)
- Squamous metaplasia, animals ([4]; n = 10): 1(10%)
- High grade intraepithelial neoplasia (carcinoma in situ-Tis), animals [5, 11]: 2 (20%) n (%)
- Low grade intraepithelial neoplasia, animals [5, 11]: 5 (50%) n (%)
- Normal, animals [5, 11]: 1 (10%) n (%)
- Papillary carcinoma (Ta), animals [5, 11]: 1 (10%) n (%)
- Squamous metaplasia, animals [5, 11]: 1 (10%) n (%)
- therapeutic effectiveness / efficacy [5, 10]: 10%
- Toxicology: Presence of hematuria, number of animals (Fischer 344, rat, in vivo): N = 10
- Toxicology: Presence of hematuria (n = 10): Positive
- Toxicology: Presence of hematuria, % of animals (n = 10): 100%
- patients treated in whom results are seen (bladder cancer): 20%
- Toxicology: (Hematuria) [6]: Positive
- Toxicology: (Hematuria), % of animals [6]: (100%)

Compound: Bacillus Calmette-Guérin [BCG]
- animals with positive result / positive outcome (histopathology) [7]: 40%
- Flat hyperplasia, number of animals ([1]; rat, in vivo): 2
- High-grade intraepithelial carcinoma (carcinoma in situ-Tis), number of animals ([1]; rat, in vivo): 3
- Low grade Intraepithelial neoplasia, number of animals ([1]; rat, in vivo): 2
- Normal, number of animals ([1]; rat, in vivo): 0
- Papillary carcinoma (Ta), number of animals ([1]; rat, in vivo): 1
- Papillary hyperplasia, number of animals ([1]; rat, in vivo): 2
- animals with recurrent/refractory malignant lesions ([1]; rat, in vivo): 06
- success rate / responders ([1]; rat, in vivo): 40%
- Flat hyperplasia, animals ([4]; rat, in vivo): 2(20%)
- High-grade intraepithelial carcinoma (carcinoma in situ-Tis), animals ([4]; rat, in vivo): 2(20%)
- Low-grade intraepithelial carcinoma, animals ([4]; rat, in vivo): 3(30%)
- Normal, animals ([4]; rat, in vivo): 0%
- Papillary hyperplasia, animals ([4]; rat, in vivo): 2(20%)
- Squamous metaplasia, animals ([4]; rat, in vivo): 1(10%)
- patients affected by local toxicity (cystitis, macroscopic haematuria) [3]: up to 75%
- patients with unwanted side effects (irritation, haematuria, dysuria) [3]: around 90%
- withdrawal from treatment because of local toxicity [3]: around 15%
- Toxicology: Presence of hematuria (rat, in vivo): Positive
- Toxicology: Presence of hematuria, % of animals (rat, in vivo): (100%)
- Toxicology: Presence of hematuria, number of animals (rat, in vivo): n = 10
- Flat hyperplasia, number of animals [8]: 1
- High-grade Intraurothelial Neoplasia - Carcinoma in situ (pTis), number of animals [8]: 1
- Low-grade Intraurothelial Neoplasia, number of animals [8]: 1
- Normal, number of animals [8]: 1
- Papillary Carcinoma (pTa), number of animals [8]: 2
- Papillary hyperplasia, number of animals [8]: 3
- Urothelial carcinoma with lamina propria invasion (pT1), number of animals [8]: 2
- recurrent or refractory / malignant lesions [8]: 83%
- recurrent or refractory lesions [8]: 17%
- responders [8]: 83%
- responders (absence of malignant lesions) [8]: 17%
- Toxicology: (Hematuria) [9]: Positive
- Toxicology: (Hematuria), % of animals [9]: (100%)
- degree of hematuria moderate, % of animals [9]: 80%
- degree of hematuria severe, % of animals [9]: 20%
- patients with no recurrence of cancer during the follow-up period (bladder cancer): 39%
- rate of recurrence after 5 years (SWOG 8507) (bladder cancer): 60%
- recurrence rate after 5 years (bladder cancer): 34%
- relapse among patients who respond well in the early days (bladder cancer): 30%
